Laboratory results reported in the supplement of paper PMC10307832.

Assays:
Experiment in all cases: relative viability (nuclei count vs DMSO), 5 days (fraction); higher = more cells survive
[1] = compound: C[C@@H](N)c1ccc(C(=O)Nc2ccnc3[nH]ccc23)cc1 + O=C(CCCCCCC(=O)Nc1ccccc1)NO [Vorinostat] (partner 1 µM)
In short: (§1)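 Each reported value is a median over duplicate plates. It expresses relative viability: treated-well nuclei count divided by vehicle-well nuclei count. Lung cancer cell lines in 1536-well plates were dosed by pin tool a day after seeding, alone with one drug or with a fixed anchor-drug dose plus five library-drug doses (not always all listed) in √10 steps, and nuclei were counted after 5 days.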

[2] = compound: C1CNCCC1C2=CC(=NN2)C3=CC=NC=C3 + Cc1nc(NC(=O)N2CCC[C@H]2C(N)=O)sc1-c1ccnc(C(C)(C)C(F)(F)F)c1 [Alpelisib] (partner 2 µM)
In short: as §1

Tanzisertib + Dasatinib = compound: O[C@H]1CC[C@H](Nc2ncc3nc(Nc4c(F)cc(F)cc4F)n([C@H]4CCOC4)c3n2)CC1 [Tanzisertib] + Cc1nc(Nc2ncc(C(=O)Nc3c(C)cccc3Cl)s2)cc(N2CCN(CCO)CC2)n1 [Dasatinib] (partner 0.075 µM)
In short: as §1

[3] = compound: C[C@@H](N)c1ccc(C(=O)Nc2ccnc3[nH]ccc23)cc1 + CC(=O)Nc1cccc(-n2c(=O)n(C3CC3)c(=O)c3c(Nc4ccc(I)cc4F)n(C)c(=O)c(C)c32)c1 [Trametinib] (partner 0.02 µM)
In short: as §1

| Cell Line | relative viability ([1]; first compound 0.04 µM) | relative viability ([1]; first compound 0.1265 µM) | relative viability ([1]; first compound 0.4 µM) | relative viability ([1]; first compound 4 µM) | relative viability ([2]; first compound 0.08 µM) | relative viability ([2]; first compound 0.8 µM) | relative viability ([2]; first compound 2.53 µM) | relative viability ([2]; first compound 8 µM) | relative viability (Tanzisertib + Dasatinib; first compound 0.08 µM) | relative viability (Tanzisertib + Dasatinib; first compound 0.253 µM) | relative viability (Tanzisertib + Dasatinib; first compound 0.8 µM) | relative viability (Tanzisertib + Dasatinib; first compound 2.53 µM) | relative viability (Tanzisertib + Dasatinib; first compound 8 µM) | relative viability ([3]; first compound 0.04 µM) | relative viability ([3]; first compound 0.1265 µM) | relative viability ([3]; first compound 0.4 µM) | relative viability ([3]; first compound 4 µM) | relative viability ([1]; first compound 1.265 µM) | relative viability ([3]; first compound 1.265 µM) |
| --- | --- | --- | --- | --- | --- | --- | --- | --- | --- | --- | --- | --- | --- | --- | --- | --- | --- | --- | --- |
| PC-14 | 0.714 | 0.878 | 0.851 | 0.683 | 0.938 | 0.913 | 1.1 | 0.923 | 0.341 | 0.238 | 0.306 | 0.234 | 0.116 | 0.736 | 0.656 | 0.497 | 0.431 | – | – |
| NCI-H727 | 1.6 | 1.22 | 1.52 | 1.49 | 0.478 | 0.552 | 0.542 | 0.524 | 0.489 | 0.286 | 0.403 | 0.349 | 0.271 | 0.41 | 0.432 | 0.404 | 0.467 | 1.57 | 0.466 |
| COR-L23 | 0.51 | 0.486 | 0.479 | 0.212 | 0.821 | 0.925 | 0.969 | 0.736 | 0.527 | 0.473 | 0.491 | 0.494 | 0.396 | 0.414 | 0.591 | 0.604 | 0.389 | 0.417 | 0.262 |
| HOP-62 | 0.715 | 0.541 | 0.602 | 0.555 | 0.734 | 0.933 | 1.11 | 0.858 | 0.733 | 0.654 | 0.659 | 0.644 | 0.569 | 0.425 | 0.356 | 0.35 | 0.365 | 0.179 | 0.377 |
| NCI-H1915 | – | 0.546 | 0.547 | 0.462 | 1 | 1.06 | 1.07 | 1.09 | 0.319 | 0.316 | 0.321 | 0.301 | 0.283 | – | 0.299 | 0.298 | 0.239 | – | – |
| BEN | 0.592 | 0.573 | 0.589 | 0.587 | 0.712 | 1.07 | 0.936 | 0.984 | 0.306 | 0.374 | 0.442 | 0.355 | 0.32 | 1.01 | 0.87 | 0.984 | 0.85 | 0.585 | 1.37 |
| NCI-H1437 | 0.882 | 0.874 | 0.991 | 1.03 | 0.941 | 0.979 | 0.999 | 0.928 | 0.527 | 0.465 | 0.393 | 0.365 | 0.439 | 0.647 | 0.572 | 0.681 | 0.638 | 1.02 | 0.601 |
| EMC-BAC-2 | 0.314 | 0.526 | 0.427 | 0.395 | 0.755 | 0.659 | 0.72 | 0.758 | 0.315 | 0.321 | 0.328 | 0.351 | 0.299 | 0.958 | 1.04 | 1.03 | 0.969 | 0.341 | 1.01 |
| NCI-H647 | 0.472 | 0.623 | 0.551 | 0.463 | 0.969 | 1.12 | 1.31 | 1.22 | 0.226 | 0.201 | 0.142 | 0.189 | 0.149 | 0.387 | 0.47 | 0.46 | 0.385 | 0.613 | 0.424 |
| LXF-289 | 0.742 | 0.794 | 0.816 | 0.836 | 1.03 | 0.973 | 1.06 | 1 | 0.233 | 0.202 | 0.222 | 0.212 | 0.215 | 0.661 | 0.676 | 0.708 | 0.588 | 0.876 | 0.797 |
| LOU-NH91 | 0.754 | 0.791 | 0.885 | 0.725 | 0.698 | 0.677 | 0.811 | 0.749 | 0.597 | 0.585 | 0.564 | 0.515 | 0.391 | 0.746 | 0.796 | 0.739 | 0.539 | 0.625 | 0.644 |
| NCI-H23 | 0.638 | 0.577 | 0.846 | 0.658 | 0.614 | 0.691 | 0.713 | 0.69 | 0.918 | 0.814 | 0.726 | 0.694 | 0.51 | 0.422 | 0.427 | 0.386 | 0.483 | – | – |
| NCI-H1993 | 0.772 | 1.02 | – | 0.718 | 0.654 | 0.668 | 0.699 | 0.669 | 0.631 | 0.656 | 0.709 | 0.526 | 0.479 | 0.607 | 0.519 | – | 0.511 | 0.811 | 0.569 |
| HCC-827 | – | 0.813 | 1.04 | 0.701 | 0.97 | 0.668 | 0.916 | 0.972 | 0.457 | 0.26 | 0.35 | 0.201 | 0.105 | – | 0.703 | 0.758 | 0.653 | 0.972 | 0.763 |
| NCI-H650 | – | 0.507 | 0.325 | 0.381 | 0.86 | 1.08 | 1.22 | 0.997 | 0.44 | 0.463 | 0.443 | 0.47 | 0.309 | – | 0.959 | 0.968 | 1.03 | – | – |
| CAL-12T | 0.863 | 0.771 | 0.914 | 0.897 | 0.929 | 1.56 | 1.51 | 1.28 | 0.453 | 0.343 | 0.375 | 0.314 | 0.319 | 0.34 | 0.408 | 0.38 | 0.409 | 0.876 | 0.447 |
| NCI-H838 | 0.763 | 0.657 | 0.583 | 0.307 | 0.984 | 1.11 | 1.03 | 0.996 | 0.355 | 0.324 | 0.3 | 0.328 | 0.31 | 0.261 | 0.512 | 0.45 | 0.192 | 0.41 | 0.289 |
| NCI-H2228 | 0.832 | 0.576 | 0.638 | 0.56 | 0.769 | 0.872 | 0.851 | 0.617 | 0.624 | 0.524 | 0.537 | 0.462 | 0.433 | 0.556 | 0.428 | 0.886 | 0.475 | 0.976 | 0.395 |
